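Dose response: 5 concentrations. Exposure: 48 h. Format: 96-well plates. Endpoint: linear interpolation; highest concentration if not reached. GI50 marks 50% less growth. TGI is the concentration that stops growth completely.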
Columns and labels:
Assay in all cases: NCI anticancer screen, dose series, 48 h
NCI/ADR-RES ovarian = system: NCI/ADR-RES ovarian
T-47D breast = system: T-47D breast
MDA-MB-231 breast = system: MDA-MB-231 breast
RPMI-8226 leukemia = system: RPMI-8226 leukemia
HS 578T breast = system: HS 578T breast
HT29 colon = system: HT29 colon
TK-10 renal = system: TK-10 renal
NCI-H460 lung = system: NCI-H460 lung
ACHN renal = system: ACHN renal
BT-549 breast = system: BT-549 breast
K-562 leukemia = system: K-562 leukemia
UACC-257 melanoma = system: UACC-257 melanoma
SNB-75 CNS = system: SNB-75 CNS
OVCAR-4 ovarian = system: OVCAR-4 ovarian
HOP-92 NSCLC = system: HOP-92 NSCLC
MOLT-4 leukemia = system: MOLT-4 leukemia
A549 NSCLC = system: A549 NSCLC
A498 renal = system: A498 renal
CCRF-CEM leukemia = system: CCRF-CEM leukemia
EKVX NSCLC = system: EKVX NSCLC
COLO 205 colon = system: COLO 205 colon
UO-31 renal = system: UO-31 renal
MDA-MB-435 = system: MDA-MB-435
OVCAR-8 ovarian = system: OVCAR-8 ovarian
MCF7 breast = system: MCF7 breast
SK-MEL-2 melanoma = system: SK-MEL-2 melanoma
NCI-H226 lung = system: NCI-H226 lung
SR leukemia = system: SR leukemia
HOP-62 NSCLC = system: HOP-62 NSCLC
SF-268 CNS = system: SF-268 CNS
SK-MEL-28 melanoma = system: SK-MEL-28 melanoma
CAKI-1 renal = system: CAKI-1 renal
NCI-H522 lung = system: NCI-H522 lung
SK-OV-3 ovarian = system: SK-OV-3 ovarian
RXF 393 renal = system: RXF 393 renal
IGROV1 ovarian = system: IGROV1 ovarian
786-0 renal = system: 786-0 renal
SN12C renal = system: SN12C renal
U251 CNS = system: U251 CNS
UACC-62 melanoma = system: UACC-62 melanoma
M14 melanoma = system: M14 melanoma
SF-295 CNS = system: SF-295 CNS
SK-MEL-5 melanoma = system: SK-MEL-5 melanoma
SW-620 colon = system: SW-620 colon
OVCAR-5 ovarian = system: OVCAR-5 ovarian
HL-60(TB) leukemia = system: HL-60(TB) leukemia
DU-145 prostate = system: DU-145 prostate
HCT-15 colon = system: HCT-15 colon
HCC-2998 colon = system: HCC-2998 colon
SF-539 CNS = system: SF-539 CNS
NCI-H23 lung = system: NCI-H23 lung
LOX IMVI melanoma = system: LOX IMVI melanoma
HCT-116 colon = system: HCT-116 colon
MALME-3M melanoma = system: MALME-3M melanoma
PC-3 prostate = system: PC-3 prostate
OVCAR-3 ovarian = system: OVCAR-3 ovarian
SNB-19 CNS = system: SNB-19 CNS

N#Cc1ccc(CSc2ncnc3nc[nH]c23)cc1
GI50 (NCI/ADR-RES ovarian): 54.3 µM
GI50 (T-47D breast): 80.7 µM
GI50 (MDA-MB-231 breast): 94.4 µM
GI50 (RPMI-8226 leukemia): 54.9 µM
GI50 (HS 578T breast): 72 µM
GI50 (HT29 colon): 77.3 µM
GI50 (TK-10 renal): 37.3 µM
GI50 (NCI-H460 lung): 43 µM
GI50 (ACHN renal): 38.4 µM
GI50 (BT-549 breast): 95 µM
GI50 (K-562 leukemia): 63.7 µM
GI50 (UACC-257 melanoma): 73.3 µM
GI50 (SNB-75 CNS): 6.86 µM
TGI (SNB-75 CNS): 66.3 µM
GI50 (OVCAR-4 ovarian): 97.4 µM
GI50 (HOP-92 NSCLC): 15.8 µM
TGI (HOP-92 NSCLC): 79.5 µM
GI50 (MOLT-4 leukemia): 92.8 µM
GI50 (A549 NSCLC): 92.4 µM
GI50 (A498 renal): 80 µM
GI50 (CCRF-CEM leukemia): 95.1 µM
GI50 (EKVX NSCLC): 90.1 µM
GI50 (COLO 205 colon): 52.2 µM
GI50 (UO-31 renal): 30.7 µM
GI50 (MDA-MB-435): 79 µM

COc1ccc(N2C(=O)/C(=C/C(Cl)=C/c3ccc([N+](=O)[O-])cc3)SC2=S)cc1
GI50 (NCI/ADR-RES ovarian): 0.562 µM
TGI (NCI/ADR-RES ovarian): > 100 µM
GI50 (OVCAR-8 ovarian): 0.462 µM
TGI (OVCAR-8 ovarian): > 100 µM
GI50 (MCF7 breast): 0.393 µM
TGI (MCF7 breast): > 100 µM
GI50 (T-47D breast): 0.725 µM
TGI (T-47D breast): > 100 µM
GI50 (MDA-MB-231 breast): 1.69 µM
TGI (MDA-MB-231 breast): > 100 µM
GI50 (SK-MEL-2 melanoma): > 21.3 µM
TGI (SK-MEL-2 melanoma): > 100 µM
GI50 (NCI-H226 lung): 4.23 µM
TGI (NCI-H226 lung): > 100 µM
GI50 (RPMI-8226 leukemia): 0.268 µM
TGI (RPMI-8226 leukemia): 0.727 µM
GI50 (HS 578T breast): 3.28 µM
TGI (HS 578T breast): > 37.9 µM
GI50 (TK-10 renal): 2.76 µM
TGI (TK-10 renal): > 100 µM
GI50 (SR leukemia): 0.312 µM
TGI (SR leukemia): 22 µM
GI50 (K-562 leukemia): 0.555 µM
TGI (K-562 leukemia): > 100 µM
GI50 (UACC-257 melanoma): 2.88 µM
TGI (UACC-257 melanoma): > 100 µM
GI50 (MOLT-4 leukemia): 0.679 µM
TGI (MOLT-4 leukemia): > 100 µM
GI50 (HOP-62 NSCLC): 2.12 µM
TGI (HOP-62 NSCLC): > 100 µM
GI50 (SF-268 CNS): 2.95 µM
TGI (SF-268 CNS): > 100 µM

CCC#CC[C@H](O)C/C=C1/C(=O)C=C[C@@H]1C/C=C\CCCC(=O)OC
GI50 (NCI/ADR-RES ovarian): 1.16 µM
TGI (NCI/ADR-RES ovarian): 3.4 µM
GI50 (OVCAR-8 ovarian): 1.24 µM
TGI (OVCAR-8 ovarian): 4.76 µM
GI50 (SK-MEL-28 melanoma): 1.12 µM
TGI (SK-MEL-28 melanoma): 3.25 µM
GI50 (CAKI-1 renal): 1.48 µM
TGI (CAKI-1 renal): 4.65 µM
GI50 (MCF7 breast): 0.297 µM
TGI (MCF7 breast): 7.01 µM
GI50 (NCI-H522 lung): 0.673 µM
TGI (NCI-H522 lung): 1.68 µM
GI50 (MDA-MB-231 breast): 1.95 µM
TGI (MDA-MB-231 breast): 7.78 µM
GI50 (SK-MEL-2 melanoma): 0.995 µM
TGI (SK-MEL-2 melanoma): 2.76 µM
GI50 (SK-OV-3 ovarian): 3.21 µM
TGI (SK-OV-3 ovarian): 10.2 µM
GI50 (NCI-H226 lung): 0.863 µM
TGI (NCI-H226 lung): 1.9 µM
GI50 (RPMI-8226 leukemia): 0.657 µM
TGI (RPMI-8226 leukemia): 2.86 µM
GI50 (RXF 393 renal): 0.865 µM
TGI (RXF 393 renal): 1.64 µM
GI50 (IGROV1 ovarian): 1.93 µM
TGI (IGROV1 ovarian): 7.84 µM
GI50 (786-0 renal): 1.22 µM
TGI (786-0 renal): 2.67 µM
GI50 (HS 578T breast): 4.3 µM
TGI (HS 578T breast): 46.6 µM
GI50 (SN12C renal): 1.77 µM
TGI (SN12C renal): 8.12 µM
GI50 (HT29 colon): 0.991 µM
TGI (HT29 colon): 2.46 µM
GI50 (U251 CNS): 0.695 µM
TGI (U251 CNS): 1.99 µM
GI50 (UACC-62 melanoma): 1.04 µM
TGI (UACC-62 melanoma): 2.82 µM
GI50 (M14 melanoma): 1.32 µM
TGI (M14 melanoma): 5.12 µM
GI50 (TK-10 renal): 1.66 µM
TGI (TK-10 renal): 3.97 µM
GI50 (SR leukemia): 0.278 µM
TGI (SR leukemia): 38.2 µM
GI50 (NCI-H460 lung): 1.31 µM
TGI (NCI-H460 lung): 3.55 µM
GI50 (ACHN renal): 0.947 µM
TGI (ACHN renal): 2.07 µM
GI50 (BT-549 breast): 1.22 µM
TGI (BT-549 breast): 3.04 µM
GI50 (K-562 leukemia): 1.13 µM
TGI (K-562 leukemia): 50 µM
GI50 (SF-295 CNS): 1.28 µM
TGI (SF-295 CNS): 3.15 µM
GI50 (SK-MEL-5 melanoma): 0.767 µM
TGI (SK-MEL-5 melanoma): 1.46 µM
GI50 (UACC-257 melanoma): 0.856 µM
TGI (UACC-257 melanoma): 2.43 µM
GI50 (SW-620 colon): 1.49 µM
TGI (SW-620 colon): 4.83 µM
GI50 (OVCAR-5 ovarian): 1.81 µM
TGI (OVCAR-5 ovarian): 7.88 µM
GI50 (SNB-75 CNS): 5.07 µM
TGI (SNB-75 CNS): 13.4 µM
GI50 (OVCAR-4 ovarian): 2.25 µM
TGI (OVCAR-4 ovarian): 8.64 µM
GI50 (HL-60(TB) leukemia): 1.31 µM
TGI (HL-60(TB) leukemia): 3.91 µM
GI50 (DU-145 prostate): 1.75 µM
TGI (DU-145 prostate): 7.26 µM
GI50 (HOP-92 NSCLC): 1.52 µM
TGI (HOP-92 NSCLC): 5.81 µM
GI50 (MOLT-4 leukemia): 0.78 µM
TGI (MOLT-4 leukemia): 7.17 µM
GI50 (A549 NSCLC): 1.6 µM
TGI (A549 NSCLC): 5.52 µM
GI50 (HOP-62 NSCLC): 1.56 µM
TGI (HOP-62 NSCLC): 4.49 µM
GI50 (HCT-15 colon): 1.17 µM
TGI (HCT-15 colon): 5.09 µM
GI50 (A498 renal): 6.82 µM
TGI (A498 renal): 13.7 µM
GI50 (SF-268 CNS): 2.05 µM
TGI (SF-268 CNS): 9.22 µM
GI50 (CCRF-CEM leukemia): 0.413 µM
TGI (CCRF-CEM leukemia): 5.66 µM
GI50 (EKVX NSCLC): 1.76 µM
TGI (EKVX NSCLC): 7.73 µM
GI50 (HCC-2998 colon): 1.07 µM
TGI (HCC-2998 colon): 1.89 µM
GI50 (SF-539 CNS): 1.31 µM
TGI (SF-539 CNS): 3.79 µM
GI50 (COLO 205 colon): 1.14 µM
TGI (COLO 205 colon): 2.86 µM
GI50 (UO-31 renal): 0.864 µM
TGI (UO-31 renal): 1.66 µM
GI50 (NCI-H23 lung): 1.02 µM
TGI (NCI-H23 lung): 2.78 µM
GI50 (MDA-MB-435): 1.5 µM
TGI (MDA-MB-435): 5.92 µM
GI50 (LOX IMVI melanoma): 0.754 µM
TGI (LOX IMVI melanoma): 1.54 µM
GI50 (HCT-116 colon): 0.235 µM
TGI (HCT-116 colon): 1.1 µM
GI50 (MALME-3M melanoma): 1.88 µM
TGI (MALME-3M melanoma): 8.42 µM
GI50 (PC-3 prostate): 1.42 µM
TGI (PC-3 prostate): 5.25 µM
GI50 (OVCAR-3 ovarian): 1.55 µM
TGI (OVCAR-3 ovarian): 6.11 µM
GI50 (SNB-19 CNS): 3.29 µM
TGI (SNB-19 CNS): 10.3 µM

CCCCNCCC(O)c1cc2ccc(C(F)(F)F)cc2c2cc(C(F)(F)F)ccc12 (stereo not given)
GI50 (RPMI-8226 leukemia): 2.04 µM
TGI (RPMI-8226 leukemia): 4.63 µM
GI50 (SN12C renal): 1.82 µM
TGI (SN12C renal): 3.41 µM
GI50 (UACC-62 melanoma): 1.78 µM
TGI (UACC-62 melanoma): 3.35 µM
GI50 (TK-10 renal): 1.88 µM
TGI (TK-10 renal): 3.39 µM
GI50 (SK-MEL-5 melanoma): 1.69 µM
TGI (SK-MEL-5 melanoma): 3.06 µM
GI50 (UACC-257 melanoma): 1.52 µM
TGI (UACC-257 melanoma): 3.02 µM
GI50 (SW-620 colon): 1.3 µM
TGI (SW-620 colon): 2.79 µM
GI50 (OVCAR-5 ovarian): 1.61 µM
TGI (OVCAR-5 ovarian): 3.13 µM
GI50 (DU-145 prostate): 1.87 µM
TGI (DU-145 prostate): 3.38 µM
GI50 (HOP-92 NSCLC): 1.1 µM
TGI (HOP-92 NSCLC): 2.44 µM
GI50 (A498 renal): 1.32 µM
TGI (A498 renal): 2.64 µM
GI50 (COLO 205 colon): 0.339 µM
TGI (COLO 205 colon): 1.07 µM
GI50 (MALME-3M melanoma): 1.96 µM
TGI (MALME-3M melanoma): 3.87 µM

Reference: PubChem BioAssay (NCI)
